Laboratory results as given in patent US20150273076A1, “SP1 POLYPEPTIDES, MODIFIED SP1 POLYPEPTIDES AND USES THEREOF” (Fulcrum SP Ltd., priority 2006, published 2015).
≈ marks a conversion by molar mass, not a printed value. Values belong to the molecule of their own block, whether it stands above or below them.

Legend:
[1] = tested on: Human colon adenocarcinoma (HT-29) cells; assay: In-vitro cytotoxicity in HT-29 cells; assay type: cell-based; conditions: HT-29 cells, dose inhibiting 50% of cell growth
Excerpt: FIGS. 24a and 24b are graphs illustrating the in-vitro cytotoxic effects of SP1-DOX complex. FIG. 24a—HT-29 cells cultured in 96 well microtiter plates were exposed to uncomplexed DOX (closed oval, magenta) or SP1-DOX complex (closed triangle, blue) prepared as described in FIGS. 9-15, at the indicated concentrations. FIG. 24b—HT-29 cells were exposed to uncomplexed SP1 (without DOX) (closed diamond, blue) or SP1-DOX complex (closed triangle, yellow) at indicated concentrations. Proportion of living cells was determined by MTT assay, and the IC50 was calculated.
HT-29 cells were prepared as in FIG. 24 above.
Human colon adenocarcinoma (HT-29) cells. The cells were grown in 50-ml flasks containing DMEM medium (Biological Industries, Bet Haemek), supplemented with 10% fetal calf serum, 1% glutamine and 1% Antibiotic-Antimicotic solution (Biolab, Israel). The cells were trypsinizated, and 2 ml medium containing 5×10^4 cells were plated in each well of a 6-wells plate. SP1, drugs or SP1-complexed with drugs was added at the indicated concentrations. The cells were incubated at 37° C. in a humidified atmosphere containing 5% CO2.After 48 hours the medium in the presence or absence of drugs was replaced in each well respectively, to maintain a constant supply of ingredients and drugs. After four days the medium was removed and the number of viable cells in the cultures was determined by spectroscopy.
The human colorectal adenocarcinoma cell line, HT-29, was used to evaluate the biological activity of the SP1-DOX complex, compared to that of the free drug and un-complexed SP1 protein. […] Thus, the SP1-DOX complex is at least as biologically active as free DOX.

[2] = tested on: human LS147T colon cancer; assay: In-vivo anti-tumorogenic activity in colon cancer xenograft; set-up: species or system CD1 nude mice; conditions: SP1-DOX 0.5 and free DOX 3 mg DOX/kg iv two times a week
Method: CD1 nude mice bearing human LS147T colon cancer (one million cells per animal) subcutaneous xenografted tumors were divided into two groups (n=6), and received either SP1-Dox (50 mg/Kg in PBS, about 0.5 mg DOX equivalent/Kg) or PBS (FIG. 27a), or uncomplexed DOX (3 mg/Kg) or PBS (FIG. 27b) alone injected intravenously into the tail vein twice per week for four weeks. Tumors were removed and weighed 35 days post engraftment.
Human LS147T colon cancer (one million cells per animal) were grafted sub cutaneously to CD1 nude mice, […], 18-20 g) (Meyer et al. 1995 Am J Dermatopath; 17:368-73). 8 days later a 3-10-mm tumor appeared in the point of injection. […]
8 days after tumor grafting SP1-DOX (50 mg/Kg in PBS, about […]), free DOX (3 mg/Kg in PBS) or PBS alone, six mice in each group, were injected iv to the tail vein twice a week for four weeks. Tumor dimension was determined by caliper measurements by the standard equation (Kalechman et al. Int J Cancer 2000; 86:281-8). […] Tumors were removed and their weight was determined.
The effect of SP1-complexing on the anti-tumorogenic activity of DOX was determined in vivo using the LS147 (human colon cancer) model in CD1 nude mice (Meyer 1995). […] At 35 days past tumor grafting, the animals were sacrificed, tumors were removed and their weight recorded (FIGS. 27a and 27b). […]

[3] = tested on: SP1; assay: Vinblastine binding to SP1 by intrinsic tryptophan fluorescence; set-up: species or system Populus tremula; conditions: native SP1; 80 μM Vinblastine shifts maximal emission to 356 nm
Method: FIG. 23 is a graph showing the complex formation of the drug Vinblastine to SP1. Left panel-emission spectra (excitation wavelength=286.00 nm) of pure SP1 (48 μM in MES) was determined using a fluorometer. Both native (left curves) and unfolded (6M Guanidinum HCl)(right curves) SP1 were tested. The net effect of Vinblastine on Tryptophan fluorescence of native protein was calculated by subtracting the relative quenching by the unfolded protein from those of the native protein at the respective maximal emission wavelength (340 nm and 321 nm respectively). Note that the tryptophan fluorescence of both the folded and unfolded SP1 protein is quenched by Vinblastine complexing, but in the case of the folded protein is also accompanied by a red shift);
Vinblastine, a vinca alkaloid, is mainly useful for treating Hodgkin's disease, lymphocytic lymphoma, histiocytic lymphoma, advanced testicular cancer, advanced breast cancer, Kaposi's sarcoma. Vinblastine binding to SP1, was determined by Intrinsic Tryptophan fluorescence measurements.
SP1 has only one Tryptophan residue (Trp 48). […] Unfolded protein fluorescence is also quenched by Vinblastine (FIG. 23), but unlike the native protein it is not accompanied by red shift. Thus, folded SP1-Vinblastine association can be detected, and quantified by changes in its Intrinsic Tryptophan fluorescence.

[4] = mouse, in vivo, iv

Compound: COc1cccc2c1C(=O)c1c(O)c3c(c(O)c1C2=O)C[C@@](O)(C(=O)CO)C[C@@H]3O[C@H]1C[C@H](N)[C@H](O)[C@H](C)O1 [doxorubicin]
- IC50 [1]: ~0.6 µg/mL (≈ 1.1 µM)
- histological examination of the tumors [2]: extensive necrosis
- average tumor size in the end of the experiment versus PBS-treated animals ([2]; 35 days): much smaller

Compound: CC[C@]1(O)C[C@@H]2CN(CCc3c([nH]c4ccccc34)[C@@](C(=O)OC)(c3cc4c(cc3OC)N(C)[C@H]3[C@@](O)(C(=O)OC)[C@H](OC(C)=O)[C@]5(CC)C=CCN6CC[C@]43[C@@H]65)C2)C1 [Vinblastine]
- effect on SP1 tryptophan fluorescence [3]: fluorescence quenching accompanied by a red shift

- clearance from circulation [4]: rapidly cleared
Compound: Nc1ccc2c(c1)C(=O)OC21c2ccc(O)cc2Oc2cc(O)ccc21 [Fluoresceinamine]
